Assay results from patent US9822101B1, “Pyrazole compounds” (Eli Lilly and Company, priority 2015, dated 2017).

Columns and labels:
[1] = biological target: T1, mouse MetAP2 (Mus musculus, UniProt O08663); assay: Enzymatic activity assay of mouse MetAP2 (LC/MS product peptide); format: biochemical; details: Mean ± SEM; substrate 150 μM, 40 minutes; read-out: mMetAP2 IC50
T1 construct: Full length MetAP2 (human and mouse) and MetAP1 (human) proteins are generated from Sf9 cells; made in house; host or cells: Sf9 cells
Protocol: (§1) Full length MetAP2 (human and mouse) and MetAP1 (human) proteins are generated from Sf9 cells using procedure similar to that described in Biochemistry 2003, 42, 5035-5042. MetAP2 and MetAP1 are purified in the presence of 5 mM MnCl2 and 2 mM CoCl2 respectively, and stored at −78° C. before use.
(§2) Inhibition of the catalytic activity of human and mouse MetAP2 by compounds in the present invention is measured by monitoring the formation of the product peptide (Gly-Lys-Val-Lys-Val-Gly-Val-Asn-Gly) from the substrate peptide (Met-Gly-Lys-Val-Lys-Val-Gly-Val-Asn-Gly) via LC/MS. The reaction is typically conducted by incubating the enzyme, test compound and substrate (150 μM) in a 100 μl assay buffer (50 mM HEPES, 100 mM NaCl, […], 0.17 mM Triton™ X-100 μl at pH 7.5) for 40 minutes. After the reaction is stopped by the addition of 200 μl CH3CN, the levels of product and remaining substrate are quantified with a mass spectrometer. The activity of human MetAP1 is monitored by the formation of the fluorescent product rhodamine-methionine from the substrate methionine-rhodamine-methionine on a spectrophotometer with the excitation light at 460 nm and emission light at 535 nm. The reaction is typically conducted by incubating the enzyme, test compound and substrate (50 μM) in a 100 μl assay buffer (50 mM HEPES, 100 mM NaCl, 0.1% BSA, 0.05% Tween®-20, 50 μM CoCl2) for 60 minutes. […]

[2] = biological target: T2, human MetAP2 (Homo sapiens, UniProt P50579); assay: Enzymatic activity assay of human MetAP2 (LC/MS product peptide); format: biochemical; details: Mean ± SEM; substrate 150 μM, 40 minutes; read-out: hMetAP2 IC50
T2 construct: Full length MetAP2 (human and mouse) and MetAP1 (human) proteins are generated from Sf9 cells; made in house; host or cells: Sf9 cells
Protocol: as §1, §2

[3] = biological target: T3, plasma DPP-4 (Mus musculus, UniProt P28843); assay: DPP-4 pharmacodynamics assay in mouse (plasma DPP-4 enzyme activity); format: in vivo; details: C57B/L6 lean mice, oral gavage, vehicle group = 0%
T3 construct: Plasma, isolated from the blood samples, is used to determine the plasma DPP-4 enzyme activity; from tissue; host or cells: plasma of C57B/L6 mice dosed with compound
Protocol: To determine the in vivo DPP-4 inhibition by MetAP2 plus DPP-4 dual inhibitor compounds, C57B/L6 lean mice are administrated with the compound in fed states and then DPP-4 target engagement in plasma is measured. Animals are weighed and randomized by body weight. Each mouse is dosed via oral gavage with vehicle or testing compound formulated with vehicle for up to 3 times. The first dose is administrated at 9˜10 am on day 1. The second dose is administrated at 16:30˜17:30 on day 1. The third dose is administrated at 9˜10 am on day 2. The mice are fasted for 6 hours after the last dose before termination at ˜[…] on day 2. Blood samples are collected at 1 hour after the first dosing and upon termination. EDTA-K2 at final concentration of 5 mM is used as an anticoagulant. Plasma, isolated from the blood samples, is used to determine the plasma DPP-4 enzyme activity. Plasma DPP-4 enzyme activity in the present invention is monitored by the formation rate of fluorescence AMC from substrate Gly-Pro-AMC (Sigma, G2761) via Envision plate reader. […] Fluorescence signal is read immediately after the start of the reaction in kinetic model in Envision plate reader. […] The plasma DPP-4 activity is calculated from reaction velocity. […]

[4] = biological target: T4, Human DPP-4 ((39-766)-His) (Homo sapiens, UniProt P27487); assay: Enzymatic activity assay of human DPP-4 (Gly-Pro-AMC fluorescence); format: biochemical; details: Mean ± SEM; substrate 10 μM, 30 minutes; read-out: hDPP-4 IC50
T4 construct: Human DPP-4 ((39-766)-His); His (C); made in house
Protocol: (§3) Human DPP-4 ((39-766)-His) and mouse DPP-4 ((29-760)-His) are purified for use in the assay. The final concentration of hDPP-4 and mDPP-4 in the assay is 0.04 nM and 0.22 nM respectively.
(§4) Inhibition of the catalytic activity of human and mouse DPP-4 by the compound in the present invention is monitored by the formation of product fluorescence AMC (7-amido-4-methylcoumarin hydrobromide) from substrate Gly-Pro-AMC (Sigma, G2761) on an Envision plate reader. The reaction is typically conducted by incubating the enzyme, test compound, and substrate (10 μM) in a 75 μl assay buffer (0.01% BSA, 0.1 mM EDTA, […], 0.01% Triton™-X100, 0.1 M NaCl at pH 7.5) for 30 minutes. After the reaction is stopped by the addition of 25 μl ZnSO4 (10 mM), the formation of fluorescent product AMC is measured on an Envision plate reader with the excitation wavelength at 355 nm and emission wavelength at 460 nm. The IC50 value is calculated typically from a 10-point dose titration curve using the 4-parameter logistic equation.

[5] = tested on: obese DIO mice; assay: Therapeutic weight loss effect in high fat diet induced obese (DIO) mice; format: in vivo, mouse; details: day 14
Protocol: To determine the therapeutic weight loss effects and improvement of metabolic parameters, the compound from the invention is tested in the high fat diet (HFD) feeding induced obese mouse model (DIO mice). In this model, C57/Bl6J male mouse is fed with the 60% HFD (D12492i, Research Diets) for 16˜28 weeks to establish obesity with body weight reaching around 50 g. The mice will gradually increase the body weight to about 50 g and maintain that weight in this obese state. Test compound (via the vehicle of 0.5% HEC plus 0.25% Tween®-80 at 5 mL/kg) is administered orally to the obese DIO mice once or twice daily throughout the study duration. The dose-dependent weight loss of obese DIO mice for Example 1 of the oral treatment at 20 mg/kg and 60 mg/kg once daily is about 4% and 17% weight loss compared to the vehicle group at day 14, respectively. The data support that the compound of Example 1 is associated with desired weight loss and could offer a therapeutic weight loss effect.

[6] = biological target: T5, mouse DPP-4 ((29-760)-His) (Mus musculus, UniProt P28843); assay: Enzymatic activity assay of mouse DPP-4 (Gly-Pro-AMC fluorescence); format: biochemical; details: Mean ± SEM; substrate 10 μM, 30 minutes; read-out: mDPP-4 IC50
T5 construct: mouse DPP-4 ((29-760)-His); His (C); made in house
Protocol: as §3, §4

[7] = biological target: T6, human MetAP1 (Homo sapiens, UniProt P53582); assay: Enzymatic activity assay of human MetAP1 (fluorescence, rhodamine-methionine); format: biochemical; details: substrate 50 μM, 60 minutes; read-out: hMetAP1 IC50
T6 construct: Full length MetAP2 (human and mouse) and MetAP1 (human) proteins are generated from Sf9 cells; made in house; host or cells: Sf9 cells
Protocol: as §1, §2

T3 sequence (P28843 37-760 limits assumed): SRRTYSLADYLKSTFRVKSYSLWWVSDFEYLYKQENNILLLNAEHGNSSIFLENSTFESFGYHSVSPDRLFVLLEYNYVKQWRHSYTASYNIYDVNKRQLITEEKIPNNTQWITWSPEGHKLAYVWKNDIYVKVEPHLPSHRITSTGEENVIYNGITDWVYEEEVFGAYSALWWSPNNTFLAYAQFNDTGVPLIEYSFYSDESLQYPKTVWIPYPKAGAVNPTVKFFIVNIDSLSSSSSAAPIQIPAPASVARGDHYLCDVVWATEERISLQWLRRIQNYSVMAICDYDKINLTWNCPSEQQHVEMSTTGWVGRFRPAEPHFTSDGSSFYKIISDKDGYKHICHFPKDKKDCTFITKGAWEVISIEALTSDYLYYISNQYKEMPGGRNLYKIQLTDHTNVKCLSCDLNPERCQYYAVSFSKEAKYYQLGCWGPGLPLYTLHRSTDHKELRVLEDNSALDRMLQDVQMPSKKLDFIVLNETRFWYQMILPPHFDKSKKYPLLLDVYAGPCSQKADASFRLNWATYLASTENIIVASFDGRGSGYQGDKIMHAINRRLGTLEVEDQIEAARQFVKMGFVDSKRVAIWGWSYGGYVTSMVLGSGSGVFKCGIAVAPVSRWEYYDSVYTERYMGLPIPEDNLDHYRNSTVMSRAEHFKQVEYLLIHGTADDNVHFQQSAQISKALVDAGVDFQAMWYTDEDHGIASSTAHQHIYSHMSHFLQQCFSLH
T4 sequence (P27487 39-766): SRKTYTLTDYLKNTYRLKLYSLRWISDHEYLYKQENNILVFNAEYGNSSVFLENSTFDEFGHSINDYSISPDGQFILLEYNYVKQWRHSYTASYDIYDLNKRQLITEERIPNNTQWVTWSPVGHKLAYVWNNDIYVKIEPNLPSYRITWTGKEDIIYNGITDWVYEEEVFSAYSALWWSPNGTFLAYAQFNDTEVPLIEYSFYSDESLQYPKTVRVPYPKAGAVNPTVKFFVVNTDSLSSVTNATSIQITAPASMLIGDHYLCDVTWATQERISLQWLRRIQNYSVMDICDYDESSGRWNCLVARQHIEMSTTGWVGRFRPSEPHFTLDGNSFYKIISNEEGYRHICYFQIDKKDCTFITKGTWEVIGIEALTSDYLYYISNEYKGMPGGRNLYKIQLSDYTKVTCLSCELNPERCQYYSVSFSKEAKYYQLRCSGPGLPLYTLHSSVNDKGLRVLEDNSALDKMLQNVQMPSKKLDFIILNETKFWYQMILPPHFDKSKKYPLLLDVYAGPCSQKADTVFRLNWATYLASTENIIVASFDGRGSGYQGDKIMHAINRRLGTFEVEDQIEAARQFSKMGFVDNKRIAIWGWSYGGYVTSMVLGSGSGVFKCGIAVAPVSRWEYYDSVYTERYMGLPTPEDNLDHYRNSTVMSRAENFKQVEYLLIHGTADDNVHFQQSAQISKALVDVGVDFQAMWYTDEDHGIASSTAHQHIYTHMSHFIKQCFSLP
T5 sequence (P28843 29-760): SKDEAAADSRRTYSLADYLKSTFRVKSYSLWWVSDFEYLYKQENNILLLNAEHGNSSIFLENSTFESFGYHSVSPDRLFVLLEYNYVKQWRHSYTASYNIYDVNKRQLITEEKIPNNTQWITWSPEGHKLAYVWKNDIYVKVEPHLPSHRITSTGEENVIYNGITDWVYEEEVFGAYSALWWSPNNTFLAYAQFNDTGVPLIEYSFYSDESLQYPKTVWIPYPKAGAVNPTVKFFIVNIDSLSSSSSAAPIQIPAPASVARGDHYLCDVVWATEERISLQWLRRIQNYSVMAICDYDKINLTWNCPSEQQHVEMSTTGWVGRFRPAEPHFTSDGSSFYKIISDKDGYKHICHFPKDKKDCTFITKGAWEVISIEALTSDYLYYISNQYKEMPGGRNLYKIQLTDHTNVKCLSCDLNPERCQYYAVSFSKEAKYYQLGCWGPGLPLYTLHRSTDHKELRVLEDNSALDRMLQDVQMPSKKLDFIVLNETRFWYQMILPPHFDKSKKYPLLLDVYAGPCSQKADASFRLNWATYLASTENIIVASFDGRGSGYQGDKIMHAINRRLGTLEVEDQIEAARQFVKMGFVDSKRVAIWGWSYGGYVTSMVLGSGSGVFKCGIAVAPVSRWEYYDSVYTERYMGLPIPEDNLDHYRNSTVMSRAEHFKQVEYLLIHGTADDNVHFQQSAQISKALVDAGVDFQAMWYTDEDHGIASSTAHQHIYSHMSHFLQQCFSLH
T1 sequence (O08663 whole entry): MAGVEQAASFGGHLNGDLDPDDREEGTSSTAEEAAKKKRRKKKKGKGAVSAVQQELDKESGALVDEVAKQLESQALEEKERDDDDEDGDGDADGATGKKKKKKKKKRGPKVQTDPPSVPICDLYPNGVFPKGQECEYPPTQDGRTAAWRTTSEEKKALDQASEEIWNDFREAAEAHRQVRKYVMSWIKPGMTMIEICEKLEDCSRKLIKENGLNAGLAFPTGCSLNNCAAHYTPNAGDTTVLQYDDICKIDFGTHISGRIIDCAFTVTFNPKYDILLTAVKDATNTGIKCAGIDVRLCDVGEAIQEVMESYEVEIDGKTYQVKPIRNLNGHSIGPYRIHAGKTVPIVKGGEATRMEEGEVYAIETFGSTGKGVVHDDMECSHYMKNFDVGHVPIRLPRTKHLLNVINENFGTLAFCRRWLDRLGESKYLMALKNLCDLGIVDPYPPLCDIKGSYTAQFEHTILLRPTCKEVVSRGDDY
T2 sequence (P50579 whole entry): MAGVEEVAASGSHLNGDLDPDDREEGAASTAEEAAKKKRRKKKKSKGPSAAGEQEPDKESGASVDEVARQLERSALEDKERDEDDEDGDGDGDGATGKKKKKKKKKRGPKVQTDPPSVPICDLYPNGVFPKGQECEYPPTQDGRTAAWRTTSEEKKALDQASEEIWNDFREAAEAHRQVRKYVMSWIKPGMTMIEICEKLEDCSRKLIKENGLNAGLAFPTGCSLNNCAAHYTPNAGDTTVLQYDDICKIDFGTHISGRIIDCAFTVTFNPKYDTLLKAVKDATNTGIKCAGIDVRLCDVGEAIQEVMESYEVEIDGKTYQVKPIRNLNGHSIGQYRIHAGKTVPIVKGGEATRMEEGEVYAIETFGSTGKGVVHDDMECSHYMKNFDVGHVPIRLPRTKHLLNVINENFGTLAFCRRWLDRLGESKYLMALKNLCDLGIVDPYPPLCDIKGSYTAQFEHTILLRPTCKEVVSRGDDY

IC50 [1]: 36 ± 34 nM
IC50 [2]: 9 ± 3 nM
plasma DPP-4 inhibition ([3]; 1 hour after the first dosing): 86%
plasma DPP-4 inhibition ([3]; upon termination (6 hours after the last dose, day 2)): 83%
IC50 [4]: 6 ± 2 nM
IC50 [6]: 26 ± 11 nM
IC50 [7]: > 30000 nM
Compound: N[C@H]1CN(c2ncc(Oc3c[nH]nc3C3=CCC(F)(F)CC3)cn2)C[C@@H]1c1cc(F)c(F)cc1F [Example 1, (3R,4S)-1-[5-[[3-(4,4-Difluorocyclohexen-1-yl)-1H-pyrazol-4-yl]oxy]pyrimidin-2-yl]-4-(2,4,5-trifluorophenyl)pyrrolidin-3-amine]
weight loss compared to the vehicle group ([5]; oral 20 mg/kg once daily): about 4%
weight loss compared to the vehicle group ([5]; oral 60 mg/kg once daily): ~17%
